Measured values from patent US8188059B2, “Compounds and methods for modulating expression of GCGR” (Isis Pharmaceuticals, Inc., priority 2006, dated 2012).
Strand notation (5' to 3'): a small letter for the sugar, then the base; units joined by * are phosphorothioate-linked, units joined directly phosphodiester-linked; [ ] holds rarer units or linkages, { } end groups; capitals alone tell only the bases. e = 2'-O-(2-methoxyethyl) (MOE); [5mC] = 5-methylcytosine; d = 2'-deoxy (DNA)

How the values were obtained:
PCSK9 mRNA = assay type: cell-based, human; settings: Hep3B cells, 100 nM, relative to untreated control cells; for % Inhib (PCSK9 mRNA): 0 = no reduction observed
Protocol: When cells reached appropriate confluency, they were treated with oligonucleotide using LIPOFECTIN® as described. […] Cells were treated and data were obtained in duplicate or triplicate. […] Cells were harvested 16-24 hours after oligonucleotide treatment.
Short antisense compounds targeted to a PCSK9 nucleic acid were tested for their effects on PCSK9 mRNA in vitro. The Isis No, gapmer motif and SEQ ID NO of each short antisense compound are shown again in Table 75. Cultured Hep3B cells were treated with 100 nM of short antisense compound. 5-10-5 MOE gapmers targeted to a PCSK9 nucleic acid were used as positive controls. After the treatment period, RNA was isolated from the cells and PCSK9 mRNA levels were measured by quantitative real-time PCR, as described herein. PCSK9 mRNA levels were adjusted according to total RNA content as measured by RIBOGREEN®. Results are presented in Table 75 as percent inhibition of PCSK9 (% Inhib), relative to untreated control cells.

[1] = Triglyceride, cholesterol and glucose levels, pre-bleed and post-bleed (Example 4, Table 34); assay type: in vivo, mouse
Protocol: Eight-week old male C57/BL6 mice (Jackson Laboratory, Bar Harbor, Me.) were administered a single dose of GCGR oligonucleotide by intraperitoneal injection at a concentration of […]. Each dose group consisted of four animals. Shown in Table 31 are the sequences, motifs and conjugates of the GCGR antisense compounds used in this study. Bolded residues indicate 2′-O-methoxyethyl (2′-MOE) moieties. All compounds comprise phosphorothioate internucleoside linkages throughout and each cytosine is replaced with 5-methylcytosine. ISIS 386626, ISIS 386627 and ISIS 386628 further comprise a C16 conjugate group attached to the 2′-O position of the sugar via a diamide linkage (2′-OCH2C(═O)N(H)(CH2)4N(H)C(═O)—(CH2)15CH3). GCGR antisense compounds target published GCGR sequences, including Genbank® Accession No. BC031885.1 (SEQ ID NO: 7).
Mice were sacrificed 48 hours following injection to determine serum transaminase levels (Table 32); liver, white adipose tissue (WAT), spleen and kidney weight (Table 33); cholesterol, triglyceride and glucose levels (Table 34); GCGR mRNA levels (Tables 35-41); and full-length and total oligonucleotide concentration in liver and kidney (Table 42). Endpoints were assessed using methods described herein and well known to those of ordinary skill in the art. Data is included from a pre-treatment bleed (Pre-Bleed) and post-treatment bleed (Post-Bleed).

Substance | % Inhibition Range (PCSK9 mRNA) (PCSK9 mRNA) | % Inhib (PCSK9 mRNA) (PCSK9 mRNA) | post-bleed glucose levels ([1]; C57/BL6 mice, single i.p. dose, 48 hours) | post-bleed triglyceride levels ([1]; relative to the 5-10-5 MOE gapmer)
400360 (antisense eG*e[5mC]*dA*dT*dG*dG*d[5mC]*dA*dG*d[5mC]*dA*dG*eG*eA) [compound 400360] | 30-40% | 38% |  | 
400361 (antisense eG*eG*d[5mC]*dA*dG*d[5mC]*dA*dG*dA*dT*dG*dG*e[5mC]*eA) [compound 400361] |  | 2% |  | 
400362 (antisense e[5mC]*eG*dG*d[5mC]*dA*dG*d[5mC]*dA*dG*dA*dT*dG*eG*e[5mC]) [compound 400362] | 10-20% | 16% |  | 
400363 (antisense e[5mC]*e[5mC]*dG*dG*d[5mC]*dA*dG*d[5mC]*dA*dG*dA*dT*eG*eG) [compound 400363] |  | 8% |  | 
400364 (antisense eT*e[5mC]*d[5mC]*dG*dG*d[5mC]*dA*dG*d[5mC]*dA*dG*dA*eT*eG) [compound 400364] |  | 0% |  | 
400365 (antisense e[5mC]*eT*d[5mC]*d[5mC]*dG*dG*d[5mC]*dA*dG*d[5mC]*dA*dG*eA*eT) [compound 400365] | 20-30% | 25% |  | 
400366 (antisense eG*e[5mC]*dT*d[5mC]*d[5mC]*dG*dG*d[5mC]*dA*dG*d[5mC]*dA*eG*eA) [compound 400366] | 10-20% | 15% |  | 
400367 (antisense eG*eG*d[5mC]*dT*d[5mC]*d[5mC]*dG*dG*d[5mC]*dA*dG*d[5mC]*eA*eG) [compound 400367] | 10-20% | 12% |  | 
400368 (antisense e[5mC]*eG*dG*d[5mC]*dT*d[5mC]*d[5mC]*dG*dG*d[5mC]*dA*dG*e[5mC]*eA) [compound 400368] | 10-20% | 11% |  | 
400369 (antisense e[5mC]*e[5mC]*dG*dG*d[5mC]*dT*d[5mC]*d[5mC]*dG*dG*d[5mC]*dA*eG*e[5mC]) [compound 400369] |  | 0% |  | 
400370 (antisense eG*e[5mC]*d[5mC]*dG*dG*d[5mC]*dT*d[5mC]*d[5mC]*dG*dG*d[5mC]*eA*eG) [compound 400370] | 10-20% | 13% |  | 
400371 (antisense eA*eG*dT*dT*dA*d[5mC]*dA*dA*dA*dA*dG*d[5mC]*eA*eA) [compound 400371] |  | 0% |  | 
ISIS 386628: GCGR 2-10-2 MOE gapmer with C16 conjugate group at the 2′-O position via a diamide linkage (antisense TGTCTTGCTGCTTT; chemistry not fully specified) |  |  | generally led to a decrease | greatest dose-dependent effect
